# Like-named read-outs stand apart in the source and are kept apart here.
# Columns and labels:
# [1] = test system: intestinal endocrine cell line STC-1; experiment: Bitter compound stimulating the secretion of GLP-1 of STC-1 cells (GLP-1 ELISA normalised to MTT cell viability, vehicle = 1); type: cell-based, mouse; conditions: for fold induction at 1000 µM: 1 mM; for secretion of GLP-1, fold comparing to the vehicle group: p<0.05
# Procedure: The embodiment of the present invention use a proglucagon-expression cell line STC-1 for study. The STC-1 cells are divided into the experimental groups and the control group. […] The secretion of GLP-1 is obtained by calculating the data gathered from the experiment using the standard curve after treating intestinal endocrine cell line STC-1 with different bitter compounds. Cell viability is measured by MTT assay after treating intestinal endocrine cell line STC-1 with different bitter compounds. The ratio of the amount of GLP-1 secreted to the cell viability in each experiment is the fold of that given bitter compound stimulating the secretion of GLP-1 of the intestinal endocrine cell line STC-1. […] Moreover, co-administering specific bitter compound, bitter taste receptor inhibitor or phospholipase C (PLC) inhibitor can further determine the bitter taste receptor corresponded to the bitter compound. The above mentioned testing methods are explained in detailed as follow:
# For the embodiment of the ability of bitter compound stimulating secretion of GLP-1 of the intestinal endocrine cell line STC-1, the experiment procedure of the stimulation of GLP-1 secretion is referred in FIG. 1.
# (§1) S3: The STC-1 cell line was treated by a bitter compound.
# (§2) S4: Supernatant was collected via centrifugation and the remaining growth medium was removed after 1 hour and the amount of cell was measured by MTT assay.
# S5: Supernatant from S4 was centrifuged again at 500×g for 5 minutes. After eliminating cell debris, the resulting supernatant was collected and stored at −80° C. for the analysis of GLP-1 secretion using commercial kit Millipore EGLP-35K. The sensitivity of the kit is between 2-100 pM. […] The result was shown in the amount of GLP-1 secreted per unit cell. To prevent over-discrepant results between batches and for the ease of statistic, each vehicle group was taken as 1, which is the comparison of result of each sample of that experiment.
# (§3) Before measuring the amount of GLP-1 secreted, all reagents were placed on ice until fully dissolved. 10× washing buffer concentrate were diluted 10 times using distilled water; STC-1 cell line was dissolved using 1 mL distilled water and was diluted 200 times using phosphate buffered saline (PBS). 300 μL/well of 1× wash buffer were added and were placed for 5 minutes at room temperature then were poured out. 200 μL/well of assay buffer were added to NSB, while 100 μL/well of assay buffer were added to the remaining wells. 100 μL of Standards, QC or STC-1 cell line were then added to the wells accordingly, and then the 96-well plate was shaken moderately for an even mixture within each well. Plates were then being sealed allowing reaction to take place at 4° C. for 20-24 hours. Plates were then washed 5 times by 300 μL/well of 1× wash buffer and placed for 5 minutes. 200 μL/well of detection conjugate was added allowing reactions to take place at room temperature for 2 hours. It was then washed 3 times by 300 μL/well of 1× wash buffer. 200 μL/well of diluted STC-1 cell line was added allowing reaction to take place at room temperature and light-free environment for approximately 20 minutes. 50 μL/well of stop solution was added to stop the reaction at room temperature and light-free environment for 5 minutes. Finally, the concentration of GLP-1 was calculated using the data obtained and the standard curve.
# Principle of MTT assay: Methylthiazolyldiphenyl-tetrazolium bromide (MTT), or 3-(4,5-cimethylthiazol-2-yl)-2,5-diphenyl tetrazolium bromide, is a yellow dye which can be reduced by dehydrogenase of mitochondria in living cells, forming an insoluble purple crystal, formazan. Thus, it is often used for the screening of the effect of materials upon the cell growth and proliferation.
# [2] = test system: intestinal endocrine cell line STC-1; experiment: GLP-1 secretion of STC-1 cells when allyl isothiocyanate and bitter taste receptor inhibitor probenecid are co-administered; type: cell-based, mouse
# Description: The embodiment of the present invention use a proglucagon-expression cell line STC-1 for study. The STC-1 cells are divided into the experimental groups and the control group. The control groups are also called vehicle groups, which is the comparison of result of each experiment taken as 1. The secretion of GLP-1 is obtained by calculating the data gathered from the experiment using the standard curve after treating intestinal endocrine cell line STC-1 with different bitter compounds. Cell viability is measured by MTT assay after treating intestinal endocrine cell line STC-1 with different bitter compounds. The ratio of the amount of GLP-1 secreted to the cell viability in each experiment is the fold of that given bitter compound stimulating the secretion of GLP-1 of the intestinal endocrine cell line STC-1. By comparing experimental groups and vehicle groups, the difference between different bitter compounds in terms of their ability to stimulate the secretion of GLP-1 of the intestinal endocrine cell line STC-1 can be observed. Moreover, co-administering specific bitter compound, bitter taste receptor inhibitor or phospholipase C (PLC) inhibitor can further determine the bitter taste receptor corresponded to the bitter compound. The above mentioned testing methods are explained in detailed as follow:
# S1: 6.39×10^4 cells were planted with 10% FBS DMEM (high glucose) in 48-well culture tray and were incubated for 48 hours.
# S2: After 48 hours when the cell growth reached 85%, culture medium was changed into 10% FBS DMEM (low glucose) for a 3-hour starvation and then followed by the treatment of 0.2% BSA DEME (low glucose).
# as §1, §2
# S5: Supernatant from S4 was centrifuged again at 500×g for 5 minutes. After eliminating cell debris, the resulting supernatant was collected and stored at −80° C. for the analysis of GLP-1 secretion using commercial kit Millipore EGLP-35K. The sensitivity of the kit is between 2-100 pM. The amount of GLP-1 secreted of each vehicle group is between 50-150 pM according to the batch, therefore, it is advised that the supernatant being diluted 4 times before the analysis. The result was shown in the amount of GLP-1 secreted per unit cell. To prevent over-discrepant results between batches and for the ease of statistic, each vehicle group was taken as 1, which is the comparison of result of each sample of that experiment.
# as §3, with “Finally, the concentration of GLP-1 was calculated using the data obtained and the standard curve.” left out
# [3] = Mus musculus, STC-1 cells, 1 hour treatment, vehicle = 1, read-out: Fold (largest fold of GLP-1 secretion vs vehicle group)
# [4] = Mus musculus, STC-1, 1 h, read-out: Fold (largest fold of GLP-1 secretion vs vehicle group)
# [5] = STC-1 cells treated by 20 μg/mL
# [6] = STC-1 cells treated by 50 μg/mL
# [7] = STC-1 cells treated by 100 μg/mL
# [8] = STC-1 cells treated by 200 μg/mL
smiles,measurement,setting,value
"CC1=CC(=O)[N-]S(=O)(=O)O1.[K+] [Acesulfame K, reference compound]",Fold (largest fold of GLP-1 secretion vs vehicle group),"[1]; STC-1 cells, 10 mM, 1 hour treatment, vehicle = 1",↑1.90 fold
C=CCN=C=S [Allyl isothiocyanate],fold induction at 10 µM,"[1]; Mus musculus, STC-1 cells, 10 μM, 1 hour treatment, vehicle = 1, read-out: Fold (largest fold of GLP-1 secretion vs vehicle group)",4.06
same,secretion of GLP-1 comparing to the vehicle groups (in words),"[1]; STC-1 cells, 1.0 μM, 2.0 μM, 5.0 μM and 10.0 μM, dose-dependent manner",significantly increase the secretion of GLP-1
same,Fold (largest fold of GLP-1 secretion vs vehicle group),"[1]; STC-1 cells, 10 μM, 1 hour treatment, vehicle = 1",↑4.06 fold
same,"secretion of GLP-1, fold of the vehicle group","[2]; 0.5 mM of probenecid jointly applied, first of three allyl isothiocyanate concentrations, p<0.001",1.14 fold
same,"secretion of GLP-1, fold of the vehicle group","[2]; 0.5 mM of probenecid jointly applied, second of three allyl isothiocyanate concentrations, p<0.001",1.40 fold
same,"secretion of GLP-1, fold of the vehicle group","[2]; 0.5 mM of probenecid jointly applied, third of three allyl isothiocyanate concentrations, p<0.001",1.93 fold
same,"secretion of GLP-1, fold of the vehicle group","[2]; 1.0 mM of probenecid jointly applied, first of three allyl isothiocyanate concentrations, p<0.001",0.86 fold
same,"secretion of GLP-1, fold of the vehicle group","[2]; 1.0 mM of probenecid jointly applied, second of three allyl isothiocyanate concentrations, p<0.001",1.07 fold
same,"secretion of GLP-1, fold of the vehicle group","[2]; 1.0 mM of probenecid jointly applied, third of three allyl isothiocyanate concentrations, p<0.001",1.51 fold
same,"secretion of GLP-1, fold of the vehicle group","[2]; allyl isothiocyanate solely applied, first of three concentrations, p<0.05",1.44 fold
same,"secretion of GLP-1, fold of the vehicle group","[2]; allyl isothiocyanate solely applied, second of three concentrations, p<0.05",2.05 fold
same,"secretion of GLP-1, fold of the vehicle group","[2]; allyl isothiocyanate solely applied, third of three concentrations, p<0.05",3.44 fold
"COc1cc2c(cc1OC)[C@@]13CCN4CC5=CCO[C@H]6CC(=O)N2[C@H]1[C@H]6[C@H]5C[C@H]43 [Brucine, reference compound]",fold induction at 50 µM,"[1]; Mus musculus, STC-1 cells, 50 μM, 1 hour treatment, vehicle = 1, read-out: Fold (largest fold of GLP-1 secretion vs vehicle group)",1.54
"Cn1c(=O)c2c(ncn2C)n(C)c1=O [Caffeine, reference compound]",fold induction at 1000 µM,[1]; [3],1.72
"CCN(CC)CCCC(C)Nc1ccnc2cc(Cl)ccc12 (stereo not shown) [Chloroquine, reference compound]",fold induction at 5 µM,[1]; [4],1.78
"CC(C)=C/C=C/[C@@H](C)[C@H]1CC[C@@]2(C)c3ccc4c(c3CC[C@]12C)CC[C@H](O)C4(C)C [Compound of formula II, 19-nor-cucurbita-5(10),6,8,22(E),24-pentaen-3β-ol]","secretion of GLP-1, fold comparing to the vehicle group",[1]; STC-1 cells treated by 5 μg/mL,1.66 fold
same,"secretion of GLP-1, fold comparing to the vehicle group",[1]; [5],2.28 fold
same,"secretion of GLP-1, fold comparing to the vehicle group",[1]; [6],4.53 fold
same,"secretion of GLP-1, fold comparing to the vehicle group",[1]; [7],6.05 fold
same,"secretion of GLP-1, fold comparing to the vehicle group",[1]; [8],6.16 fold
"CC(C)=CC(O)C[C@@H](C)[C@H]1CC[C@@]2(C)[C@@H]3C=C[C@@]45OC[C@]3(CC[C@]12C)C4CC[C@H](O)C5(C)C (stereo partly drawn) [Compound of formula IV, 5β,19-epoxycucurbita-6,24-diene-3β,23ξ-diol]","secretion of GLP-1, fold comparing to the vehicle group",[1]; STC-1 cells treated by 5 μg/mL,1.37 fold
same,"secretion of GLP-1, fold comparing to the vehicle group",[1]; [5],1.49 fold
same,"secretion of GLP-1, fold comparing to the vehicle group",[1]; [6],1.84 fold
same,"secretion of GLP-1, fold comparing to the vehicle group",[1]; [7],2.76 fold
same,"secretion of GLP-1, fold comparing to the vehicle group",[1]; [8],3.68 fold
"CC[N+](CC)(CC(=O)Nc1c(C)cccc1C)Cc1ccccc1 [Denatonium benzoate, reference compound]",fold induction at 2500 µM,"[1]; Mus musculus, STC-1 cells, 2.5 mM, 1 hour treatment, vehicle = 1, read-out: Fold (largest fold of GLP-1 secretion vs vehicle group)",2.97
"CC1(C)O[C@H]2CC(=O)OC[C@]23[C@H]2CC[C@@]4(C)[C@H](c5ccoc5)OC(=O)[C@H]5O[C@]54[C@]2(C)C(=O)C[C@@H]13 [Limonin, reference compound]",fold induction at 200 µM,"[1]; Mus musculus, STC-1 cells, 200 μM, 1 hour treatment, vehicle = 1, read-out: Fold (largest fold of GLP-1 secretion vs vehicle group)",1.22
"C=C[C@H]1C[N@@]2CC[C@H]1C[C@H]2[C@H](O)c1ccnc2ccc(OC)cc12 [Quinine, reference compound]",fold induction at 80 µM,"[1]; Mus musculus, STC-1 cells, 80 μM, 1 hour treatment, vehicle = 1, read-out: Fold (largest fold of GLP-1 secretion vs vehicle group)",1.9
"O=C1NS(=O)(=O)c2ccccc21 [Saccharin, reference compound]",fold induction at 1000 µM,[1]; [3],4.84
"O=C1C[C@@H]2OCC=C3CN4CC[C@]56c7ccccc7N1[C@H]5[C@H]2[C@H]3C[C@H]46 [Strychnine, reference compound]",fold induction at 50 µM,[1]; [4],1.91

# Reference: US9446053B2, “Method for enhancing the secretion of GLP-1 using bitter compounds” (priority 2013, dated 2016)
